For 14 molecules, TGI and GI50 results are on record in PubChem BioAssay (NCI).

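Five concentrations, 48 hours, 96-well plates. Abbreviation: GI50, concentration required for 50% inhibition of growth. At the TGI there is no net growth.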 Where a SMILES comes first, the peptide text is derived from it. The star is where a group is joined. Cbz = O=C(OCc1ccccc1)*; OBn = c1ccc(CO*)cc1 Where only a bound is given, the exact number is not on record here.

Assay in all cases: growth of human tumour cells (NCI), 48 h
In test [1] the test system is A549 NSCLC.
Test [2] deals with HOP-62 NSCLC.
The test system of test [3] is HS 578T breast.
Test [4] concerns NCI-H460 lung.
In test [5] the test system is SF-295 CNS.
Test [6] relates to SK-MEL-2 melanoma.
The subject of test [7] is SN12C renal.
Test [8] deals with SNB-75 CNS.
The test system of test [9] is SW-620 colon.
Test [10] concerns UACC-62 melanoma.

Take `CCc1ccc2[nH]c(O)c(-c3[nH]c4ccccc4c3N=O)c2c1`: the TGI in test [1] turned out to be 37 µM; in test [2] it was 27.2 µM; in test [3], 30.5 µM; in test [4], 21 µM; in test [5] it was 20.5 µM; in test [6], 15.3 µM. Besides, the TGI in test [7] came to 18 µM; in [8], 28.9 µM; in test [9], 89.9 µM; in test [10], 23 µM.
Take `O=C1C(Br)=CC2(C=C1Br)CCNC1=C2C(=O)c2cccnc2C1=O`: the TGI worked out at 30.1 µM in test [1]; 21.3 µM in test [2]; 45.3 µM in test [3]; 19.8 µM in test [4]; 21 µM in test [5]; 10.9 µM in [6]. The TGI was determined as 25.1 µM in test [7], 27.1 µM in [8], 27.3 µM in test [9] and 12.9 µM in test [10].
As to `O=C(CCCCCCCCC(=O)N1C(=O)CC(=O)N(c2cccc(Cl)c2)C1=S)N1C(=O)CC(=O)N(c2cccc(Cl)c2)C1=S`, the TGI in [1], in test [2], in test [3], in [4], in test [5] and in [6] was more than 100 µM each time. The TGI in test [7] is more than 100 µM; in test [8] it was more than 100 µM; in test [10], 84.3 µM.
Consider `O=c1[nH]nc(-c2ccccc2)n1/N=C/c1c(O)ccc2ccccc12`, for which the TGI in test [1] was more than 100 µM; in [2] it was more than 100 µM; in test [3], 50.4 µM; in test [5], 82.4 µM; in test [6] it was more than 100 µM; in test [7], more than 100 µM. Further, the TGI in [8] is 93.6 µM; in test [9] it was more than 100 µM; in test [10], more than 100 µM.
Turning to `O=C(c1ccccc1)c1ccc2nc(-c3c(Cl)c(Cl)c(Cl)c(Cl)c3C(=O)N/N=C/c3ccccc3)[nH]c2c1`, the TGI was more than 100 µM in test [1]; 99.7 µM in [2]; more than 100 µM in test [3]; 88.7 µM in test [5]; 67.5 µM in [6]; 60.8 µM in test [7]. Further, the TGI is 92.6 µM in test [8] and more than 100 µM in test [9].
On to `COC(=O)n1c(=O)n(-c2ccccc2)c(=O)n1C(=O)OC`, for which the TGI in test [1], in test [3], in [4], in [6], in test [7] and in test [8] was more than 100 µM throughout. The TGI in test [9] and in test [10] was more than 100 µM in each case.
In the case of `O=C(NC1CCN(Cc2ccccc2)CC1)c1cc2nc(-c3ccc(Cl)s3)cc(C(F)(F)F)n2n1`, the GI50 in [1] is 79 µM; in [2], 27 µM; in test [3], 10.9 µM; in test [5], more than 100 µM; in test [7], more than 100 µM; in [8], 10.5 µM. Also, the TGI in [1], in [2], in [3], in test [5], in test [7] and in test [8] was more than 100 µM each time.
Take `CCCNC(C#N)c1ccc(C(C#N)NCCC)cc1` (stereo not given): the TGI in test [1], in test [3], in test [4], in test [5], in test [6] and in [7] was more than 100 µM each time. In addition, the TGI in test [9] and in test [10] was more than 100 µM throughout.
As for `CC(=O)OC(OC(C)=O)n1cc(C=O)c2ccccc21`, the TGI in [1], in test [2], in test [3], in test [4], in test [5] and in test [6] was more than 100 µM each time. Besides, the TGI in [7] and in [9] was more than 100 µM in each case.
With `COC(=O)C(Cc1ccc(O)cc1)NC(=O)C(CC(=O)OCc1ccccc1)NC(=O)OCc1ccccc1` (stereo not given) (Cbz-Asp(OBn)-Tyr-OMe; configuration not given here), the TGI worked out at 37 µM in test [1]; 34.6 µM in [2]; 69.6 µM in test [3]; 25.9 µM in [4]; 34.8 µM in test [6]; 39.3 µM in test [7]. For the same molecule, the TGI in test [8] was determined as 32.6 µM; in test [9], 44.8 µM.
Regarding `CCOC(=O)CNC(=O)C(C)NC(=O)C(NC(=O)CC(c1ncc[nH]1)c1ncc[nH]1)C(C)CC` (stereo not given), the TGI in test [1], in test [3], in test [4], in test [5], in test [6] and in test [7] was more than 100 µM each time. In addition, the TGI in test [8], in test [9] and in [10] was more than 100 µM each time.
In the case of `Fc1ccc(N=NN2CCCC2)cc1`, the TGI in test [1], in test [2], in [3], in test [4], in [5] and in test [6] was more than 100 µM each time. In addition, the TGI in test [7], in test [9] and in [10] was more than 100 µM in each case.
Turning to `C=CCNC(=O)NC1=CSC2=NC(=O)C3(NN12)c1ccccc1-c1ccccc13`, the TGI in [1], in test [2], in test [3], in test [4], in [5] and in test [7] was more than 10 µM each time. For the same molecule, the TGI in test [8], in test [9] and in [10] was more than 10 µM throughout.
`Cc1nc2ccc(S(=O)(=O)O)cc2c(=O)n1-c1ccc(C(=O)NN2C(=O)C(Cl)C2c2ccccc2O)cc1` (stereo not given): the TGI in test [1], in test [2], in [3], in test [5], in test [6] and in test [7] was more than 100 µM throughout. The TGI in test [8] and in [9] was more than 100 µM throughout.
